Active and inactive are the calls of the source. The calls are words filed in the database; no cut-off is given here.
Tests used:
[1] = biological target: T1, Tyrosine-protein kinase ABL1 (Homo sapiens, UniProt P00519); test: Displacement of ALLO-1 from allosteric site of N-terminal His6-tagged ABL (83 to 534 residues) (unknown origin) expressed in Escherichia coli co-expressing Protein Tyrosine Phosphatase 1b at 25 to 250 uM by 19F NMR spectroscopy based dual-site competition assay
[2] = biological target: T1, Tyrosine-protein kinase ABL1; test: Displacement of CAT-1 from catalytic site of N-terminal His6-tagged ABL (83 to 534 residues) (unknown origin) expressed in Escherichia coli co-expressing Protein Tyrosine Phosphatase 1b at 25 to 250 uM by 19F NMR spectroscopy based dual-site competition assay
[3] = biological target: T1, Tyrosine-protein kinase ABL1; test: Displacement of CAT-1 from catalytic site of N-terminal His6-tagged ABL (83 to 534 residues) (unknown origin) expressed in Escherichia coli co-expressing Protein Tyrosine Phosphatase 1b at 25 and 50 uM by 19F NMR spectroscopy based dual-site competition assay
[4] = biological target: T1, Tyrosine-protein kinase ABL1; test: Binding affinity to catalytic site of N-terminal His6-tagged ABL (83 to 534 residues) (unknown origin) expressed in Escherichia coli co-expressing Protein Tyrosine Phosphatase 1b by NMR spectroscopy based dual-site competition assay
[5] = biological target: T1, Tyrosine-protein kinase ABL1; test: Binding affinity to allosteric site of N-terminal His6-tagged ABL (83 to 534 residues) (unknown origin) expressed in Escherichia coli co-expressing Protein Tyrosine Phosphatase 1b at 25 uM in presence of ABL001

T1 sequence (P00519 whole entry, the tested form may be a part): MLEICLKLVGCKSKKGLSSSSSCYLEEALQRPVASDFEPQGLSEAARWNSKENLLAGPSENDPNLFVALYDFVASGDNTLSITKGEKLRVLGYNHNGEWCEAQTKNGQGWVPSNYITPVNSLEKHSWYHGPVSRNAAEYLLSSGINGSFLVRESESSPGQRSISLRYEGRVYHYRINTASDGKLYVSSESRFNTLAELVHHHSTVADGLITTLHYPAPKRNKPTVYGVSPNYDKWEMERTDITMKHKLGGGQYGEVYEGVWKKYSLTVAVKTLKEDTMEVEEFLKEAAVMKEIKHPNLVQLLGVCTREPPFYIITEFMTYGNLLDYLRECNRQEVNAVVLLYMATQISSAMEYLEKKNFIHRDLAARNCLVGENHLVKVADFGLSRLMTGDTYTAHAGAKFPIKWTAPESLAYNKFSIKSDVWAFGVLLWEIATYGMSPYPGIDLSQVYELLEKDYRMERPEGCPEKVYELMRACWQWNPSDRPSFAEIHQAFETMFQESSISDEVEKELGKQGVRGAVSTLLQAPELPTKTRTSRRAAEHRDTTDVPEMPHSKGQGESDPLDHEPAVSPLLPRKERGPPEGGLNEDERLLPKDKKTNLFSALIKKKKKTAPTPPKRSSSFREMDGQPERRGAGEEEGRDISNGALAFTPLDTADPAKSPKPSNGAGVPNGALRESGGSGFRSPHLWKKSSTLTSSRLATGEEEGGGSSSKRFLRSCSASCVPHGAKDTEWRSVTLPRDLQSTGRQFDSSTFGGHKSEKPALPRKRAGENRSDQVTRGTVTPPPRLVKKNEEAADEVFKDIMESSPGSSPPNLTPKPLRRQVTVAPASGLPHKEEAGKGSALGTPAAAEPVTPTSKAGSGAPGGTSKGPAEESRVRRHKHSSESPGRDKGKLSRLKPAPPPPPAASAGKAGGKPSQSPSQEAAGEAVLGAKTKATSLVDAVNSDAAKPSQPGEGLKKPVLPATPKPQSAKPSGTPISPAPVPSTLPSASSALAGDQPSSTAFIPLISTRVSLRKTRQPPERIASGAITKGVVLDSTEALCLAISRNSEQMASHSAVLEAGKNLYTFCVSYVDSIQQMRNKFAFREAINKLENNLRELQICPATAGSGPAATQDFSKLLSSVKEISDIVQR

Row | SMILES | inhibition [1] | inhibition [2] | inhibition [3] | Kd [4] [µM] | Activity [5]
1 | FC(F)(F)Oc1ccc(Nc2ccncn2)cc1 | Active | Active | inactive |  | 
2 | NC(=O)C1CCN(c2ccc(C(F)(F)F)cn2)CC1 |  |  |  | 43 | Active

Reference: ChEMBL document CHEMBL4033755, “19F-NMR-Based Dual-Site Reporter Assay for the Discovery and Distinction of Catalytic and Allosteric Kinase Inhibitors” (ACS Med Chem Lett, 2017)
